Data taken from US20130101615A1, “METHODS FOR PREVENTING OR TREATING A DISEASE OR CONDITION ASSOCIATED WITH MYCOBACTERIUM AVIUM SUBSPECIES PARATUBERCULOSIS” (priority 2005, published 2013).
Where two headings read alike, the source gives them in different places.

How the values were obtained:
M. avium 101 = assay type: cell-based, M. avium subspecies avium; details: for %-ΔcGI: Example 5
MAP ATCC 19698 (bovine) = assay type: cell-based, Mycobacterium avium subspecies paratuberculosis; details: for effect on proliferation / cumulative growth index, in words: MAP ATCC 19698
MAP = assay: Growth inhibition of MAP (strain not stated or MAP strains in general); details: for %−ΔcGI (percent decrease in cumulative GI): Example 3, strain not stated
[1] = test system: MAP Dominic (ATCC 43545), isolated from human with Crohn's disease; assay type: cell-based, Mycobacterium avium subspecies paratuberculosis; details: MAP (Dominic), Table 4
M. avium ATCC 25291 = assay type: cell-based, M. avium subspecies avium; details: M. avium ATCC 25291

## Nc1ccc(O)c(C(=O)O)c1 [5-ASA, 5-aminosalicylic acid]
M. avium 101
  effect on growth, in words: little effect
MAP ATCC 19698 (bovine)
  effect on proliferation / cumulative growth index, in words: inhibited the proliferation of MAP (ATCC 19698) in a dose-dependent manner

## Nc1ccc(C(=O)O)c(O)c1 [p-aminosalicylic acid]
MAP ATCC 19698 (bovine)
  effect on proliferation / cumulative growth index, in words: inhibited the proliferation of MAP (ATCC 19698) in a dose-dependent manner

## CC1(C)S[C@@H]2[C@H](NC(=O)[C@H](N)c3ccccc3)C(=O)N2[C@H]1C(=O)O [ampicillin]
MAP; 32 μg/ml
  %−ΔcGI (percent decrease in cumulative GI): 21%

## O=C(O)c1cc(/N=N/c2ccc(S(=O)(=O)Nc3ccccn3)cc2)ccc1O [sulfasalazine]
MAP ATCC 19698 (bovine)
  effect on proliferation / cumulative growth index, in words: little effect on the cumulative growth index of MAP

## O=C1CCC(N2C(=O)c3ccccc3C2=O)C(=O)N1 (stereo not drawn) [Thalidomide (+), thalidomide]
M. avium 101; 1 μg/ml
  %-ΔcGI: 4%
M. avium 101; 4 μg/ml
  %-ΔcGI: −5%
M. avium 101; 16 μg/ml
  %-ΔcGI: 16%
M. avium 101; 64 μg/ml
  %-ΔcGI: −19%
MAP; MAP strains in general
  effect on growth of MAP, in words: more inhibitory than thalidomide (−)
[1]; 1 μg/ml
  %-ΔcGI: −4%
[1]; 4 μg/ml
  %-ΔcGI: 1%
[1]; 16 μg/ml
  %-ΔcGI: −14%
[1]; 64 μg/ml
  %-ΔcGI: −58%

## CC[C@H]1OC(=O)[C@H](C)[C@@H](O[C@H]2C[C@@](C)(OC)[C@@H](O)[C@H](C)O2)[C@H](C)[C@@H](O[C@@H]2O[C@H](C)C[C@H](N(C)C)[C@H]2O)[C@](C)(OC)C[C@@H](C)C(=O)[C@H](C)[C@@H](O)[C@]1(C)O [clarithromycin]
M. avium ATCC 25291
  effect on growth, in words: no evidence of growth
MAP; 0.5 μg/ml
  %−ΔcGI (percent decrease in cumulative GI): ≥ 86%
MAP ATCC 19698 (bovine); 4 μg/ml, MAP 19698, Example 3
  %−ΔcGI (percent decrease in cumulative GI): ~80%
